This passage reports IC50 results from BindingDB's records for doi:10.1016/j.ejmech.2023.115229 (Sichuan University, 2023).

The term IC50 denotes the midpoint of a concentration-inhibition curve.

For the assay, the target named is Ribosomal protein S6 kinase alpha-2 (Homo sapiens, UniProt Q15349). Kind of assay: Inhibition of RSK3 (unknown origin).
Sequence of Ribosomal protein S6 kinase alpha-2 (Q15349 whole entry): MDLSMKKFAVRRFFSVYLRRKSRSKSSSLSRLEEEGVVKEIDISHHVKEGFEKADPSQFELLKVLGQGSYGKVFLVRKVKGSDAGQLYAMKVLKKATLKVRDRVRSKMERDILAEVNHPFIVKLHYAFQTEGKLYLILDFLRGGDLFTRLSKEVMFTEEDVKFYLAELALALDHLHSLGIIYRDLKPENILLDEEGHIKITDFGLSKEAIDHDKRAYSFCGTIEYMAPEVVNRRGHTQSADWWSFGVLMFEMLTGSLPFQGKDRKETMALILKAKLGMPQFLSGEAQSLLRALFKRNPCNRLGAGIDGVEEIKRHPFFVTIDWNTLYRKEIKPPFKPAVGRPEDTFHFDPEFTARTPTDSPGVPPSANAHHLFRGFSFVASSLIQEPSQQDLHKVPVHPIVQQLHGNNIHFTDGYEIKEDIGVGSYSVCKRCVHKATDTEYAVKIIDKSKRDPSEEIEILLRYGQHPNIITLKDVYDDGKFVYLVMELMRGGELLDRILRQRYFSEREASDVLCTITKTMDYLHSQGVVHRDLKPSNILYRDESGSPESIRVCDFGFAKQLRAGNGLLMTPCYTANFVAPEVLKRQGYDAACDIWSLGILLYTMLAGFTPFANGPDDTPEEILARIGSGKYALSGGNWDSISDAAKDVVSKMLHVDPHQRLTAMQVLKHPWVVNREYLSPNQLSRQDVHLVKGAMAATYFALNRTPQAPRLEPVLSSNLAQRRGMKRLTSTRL

`O=c1c(O)c(-c2ccc(O)c(O)c2)oc2cc(O)ccc12` [2-(3,4-dihydroxyphenyl)-3,7-dihydroxy-chromen-4-one] yielded an IC50 of 0.891 µM.
